Source: patent EP3250181B1, “MINOXIDIL-BASED PHARMACEUTICAL FORMULATION FOR THE TOPICAL USE AND KIT THEREOF” (Farmalabor S.r.l., priority 2014, dated 2016)

Legend:
[1] = Stability, first study: real storage conditions, HPLC; conditions: formulation A, room temperature, both in the presence and in the absence of light
[2] = Stability, second study: cold-warm cycle in climate room for 60 hours; conditions: formulation A, 4°C/25°C/40°C cycle, dark or UV/Vis light

In the case of `Nc1cc(N2CCCCC2)nc(N)[n+]1[O-]` [Minoxidil], the “stability of Minoxidil in the gel” value [1] is reported as “stable in the gel for 5 weeks” and the “chemical stability after cold-heat shock” value [2] is reported as “chemical stability of Minoxidil into the gel also after a cold-heat shock”.
